≈ marks a conversion by molar mass, not a printed value. Residues, ends and D or L forms follow the SMILES beside them.
Key:
[1] = test system: Pseudomonas aeruginosa PAO1 strain H103; type: cell-based; details: PAO1
Method in brief: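 Modified broth microdilution MIC in Mueller Hinton medium, peptides diluted in 0.01% acetic acid/0.2% BSA, polypropylene plates. Inoculum 2-7×10^5 CFU/ml, overnight at 37 °C; MIC is the lowest concentration with no visible growth.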

[2] = test system: wild-type Salmonella enterica ssp. typhimurium; type: cell-based
Method in brief: (§1)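 First, peptides were serially diluted at ten times final strength in 0.01% acetic acid with 0.2% BSA. These were then added to Mueller Hinton medium and inoculated with overnight-grown organisms at 2-7×10^5 CFU/ml. After overnight incubation at 37° C, the MIC was scored as the concentration without growth.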

[3] = test system: Enterococcus faecalis ATCC29212; type: cell-based; details: ATCC29212
Method in brief: as §1

[4] = test system: lab isolate of Candida albicans; type: cell-based; details: lab isolate of
Method in brief: as §1

[5] = test system: clinical isolate of Staphylococcus epidermidis; type: cell-based; details: clinical isolate of
Method in brief: as §1

Escherichia coli UB1005 = type: cell-based; details: indolicidin substitution variants (Table 4)
Method in brief: as §1

[6] = test system: Staphylococcus aureus ATCC25923; type: cell-based; details: ATCC25923
Method in brief: as §1

[7] = test system: LPS-stimulated TNFα production in THP-1 cells; assay: Suppression of P. aeruginosa LPS-stimulated TNFα production (ELISA); type: cell-based, human; details: 10 ng/ml P. aeruginosa LPS, peptides at 10, 20 and 50 μg/ml (FIG. 13)
Procedure: FIG. 12. Assessment of the ability of peptides to suppress P. aeruginosa LPS (10 ng/ml)-stimulated TNFα production in THP1 cells. Presented results are the mean values for 4 wells performed on 2 separate occasions. The x-axis number labeling is the amount of each peptide in μg/ml for the corresponding peptides.
FIG. 13. Suppression of inflammatory responses by peptides. Monocyte/macrophage-like adherent THP-1 cells were stimulated with 10 ng/ml P. aeruginosa LPS and the resulting TNFα response measured. Peptides were added at 10, 20 and 50 μg/ml. The observed TNF-release was measured by ELISA and related to the 100% value of the untreated (without peptide) cells.
Cytotoxicity and TNFα suppression assay. THP1 cells were cultured in RPMI 1640 medium (supplemented with 10% (v/v) FCS, 1% L-glutamine, and […] sodium pyruvate) in E-toxa-clean (Sigma-Aldrich, Oakville, Ontario, Canada)-washed, endotoxin-free bottle. THP1 cells were counted and 250 μl per well of […] were transferred into a 96 well tissue cultured treated polystyrene microtiterplate (Beckton Dickinson, Franklin Lakes, USA). In addition PMA were added (1.3 nM) and the cells were incubated for three days. After three days the medium were exchanged and Pseudomonas aeruginosa LPS and the peptides were added. The incubation time was four hours and the supernatant was frozen at −20° C. The cells were stained with Tryphan Blue for 2 minutes and washed with PBS two times. The viability of the cells was determined by counting the stained cells over the unstained. The supernatent was used to measure the TNFα production by an ELISA (eBioscience, San Diego, USA) following the manufactures protocol.
LPS from P. aeruginosa strain H103 was highly purified free of proteins and lipids using the Darveau-Hancock method. Briefly, P. aeruginosa was grown overnight in LB broth at 37° C. Cells were collected and washed and the isolated LPS pellets were extracted with a 2:1 chloroform:methanol solution to remove contaminating lipids. Purified LPS samples were quantitated using an assay for the specific sugar 2-keto-3-deoxyoctosonic acid (KDO assay) and then resuspended in endotoxin-free water (Sigma-Aldrich).
Human monocytic cells, THP-1, were obtained from American type culture collection, ATCC® (TIB-202) and were grown in suspension in RPMI-1640 media (Gibco®, Invitrogen™ Life technologies, Burlington, ON), supplemented with 10% (v/v) heat inactivated fetal bovine serum (FBS), 2 mM L-glutamine and 1 mM sodium pyruvate (all from Invitrogen Life Technologies). Cultures were maintained at 37° C. in a humidified 5% (v/v) CO2 incubator up to a maximum of six passages. THP-1 cells at a density of 1×10^6 cells/ml were treated with 0.3 μg/ml phorbol 12-myristate 13-acetate (PMA; Sigma-Aldrich Canada, Oakville ON) for 24 hours, inducing plastic-adherent cells that were further rested in complete RPMI-1640 medium for an additional 24 hours prior to stimulation with various treatments including P. aeruginosa LPS (10 ng/ml) with or without peptides for 24 hours after which supernatants were collected and TNFα assessed by ELISA.
THP-1 cells were stimulated with LPS (10 ng/ml) with or without peptide (10 or 100 μg/ml) for 4 hours as indicated in the results section. Following incubation of the cells under various treatment regimens, the tissue culture supernatants were centrifuged at 1000×g for 5 min, then at 10,000×g for 2 min to obtain cell-free samples. Supernatants were aliquoted and then stored at −20° C. prior to assay for various cytokines. TNFα secretion was detected with a capture ELISA (eBioscience and BioSource International Inc., CA, USA respectively).

[8] = test system: ESBL Klebsiella pneumonia clinical strain 63575; type: cell-based
Method in brief: (§2)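 Broth microdilution in Mueller Hinton medium, peptides serially diluted in 0.01% acetic acid with 0.2% BSA in polypropylene plates. Inoculum 2-7×10^5 CFU/ml, incubated overnight at 37° C. MIC is the lowest concentration with no visible growth.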

[9] = test system: ESBL E. coli clinical strain 64771; type: cell-based; details: ESBL clinical strain 64771
Method in brief: as §2

[10] = test system: multidrug resistant Pseudomonas maltophilia ATCC13637; type: cell-based
Method in brief: as §2

[11] = test system: Liverpool Epidemic Strains; type: cell-based, Pseudomonas aeruginosa
Method in brief: (§3)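 Modified broth microdilution in Mueller Hinton medium, peptides serially diluted in 0.01% acetic acid with 0.2% BSA in polypropylene plates. Inoculum 2-7×10^5 CFU/ml, overnight incubation at 37° C; MIC taken as lowest concentration with no visible growth.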

S. aureus = assay: Mouse model of aggressive bacterial infection (intraperitoneal); type: in vivo; details: 1.6×10^10 CFU IP; 4 mg/kg peptide IP four hours post infection; total infection time 24 hours; saline controls 100% death
Procedure: FIG. 10. Ability of new antimicrobial peptides HHC-10 and HHC-36 to protect mice against Staph aureus infections. Bacterial loads in the peritoneal lavage from individual mice after 24 hours of infection are shown (solid circles). Dead animals were assigned the highest colony forming unit (CFU) count obtained in the experiment. The solid line represents the arithmetic mean for each group.
(§4) FIG. 18. […] Mice were treated with 1.6×10^10 CFU of S. aureus intraperitoneally. Four hours post infection they received a dose of 8 mg/kg peptide IP. The infection was allowed to progress for 4 or 24 hours after which mice were euthanaised and plate counts of staphylococci surviving in the peritoneum were determined. Bacterial loads in the peritoneal lavage from individual mice after 24 hours of infection are shown (solid circles). The solid line represents the arithmetic mean for each group.
as §4, with “19.” for “18.”
To further confirm this, a mouse model of aggressive bacterial infection, widely used to assess antibiotic efficacy, was utilized. Mice were treated with 1.6×10^10 CFU IP. Four hours post infection they received a dose of 4 mg/kg peptide IP. The infection was allowed to progress for 20 more hours, for a total infection time of 24 hours.
These immunomodulatory activities led to protection against infections by S. aureus. Briefly a mouse model of aggressive bacterial infection, widely used to assess antibiotic efficacy, was utilized. […] The infection was allowed to progress for 4 or 24 hours after which mice were euthanaised and plate counts of staphylococci surviving in the peritoneum were determined.

[12] = test system: MCP-1 release by human PBMC; assay: Chemokine induction in PBMC (capture ELISA); type: cell-based; details: background (204) subtracted
Method in brief: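 Heparinized blood from healthy volunteers; Ficoll-isolated human PBMC (7.5×10^5) treated with peptides at 20 or 100 μg/ml for 24 hours at 37° C, 5% CO2. Cell-free supernatants assayed for MCP-1 by capture ELISA.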

[13] = test system: MCP-3 release by human PBMC; assay: Chemokine induction in PBMC (capture ELISA); type: cell-based; details: background (6) subtracted
Method in brief: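 Human PBMC from healthy donors (Ficoll-isolated), 7.5×10^5 cells at 0.75–1×10^6 cells/ml, treated with peptides at 20 or 100 μg/ml for 24 h at 37° C, 5% CO2. MCP-3 in cell-free supernatants measured by capture ELISA.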

ESBL E. cloacae = type: cell-based, Enterobacter cloacae
Method in brief: as §3

[14] = test system: clinical isolates of MRSA; type: cell-based, Staphylococcus aureus
Method in brief: as §3

[15] = test system: CXCL1 (Gro-α) release by human PBMC; assay: Chemokine induction in PBMC (capture ELISA); type: cell-based; details: background (196) subtracted
Method in brief: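 Human PBMC from healthy donors' heparinised blood (Ficoll), 7.5×10^5 cells treated with 20 or 100 μg/ml peptide for 24 h at 37° C, 5% CO2. Cell-free supernatants assayed for CXCL1 by capture ELISA.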

SMILES | MIC [8] [µM] | MIC [9] [µM] | MIC [10] [µM] | MIC [11] [µM] | mice protected (S. aureus) [%] | Chemokine induction MCP-1 ([12]; 20 μg/ml peptide) [pg/mL] | Chemokine induction MCP-1 ([12]; 100 μg/ml peptide) [pg/mL] | Chemokine induction MCP-3 ([13]; 20 μg/ml peptide) [pg/mL] | Chemokine induction MCP-3 ([13]; 100 μg/ml peptide) [pg/mL] | MIC [3] [µM] | MIC [6] [µM] | MIC (ESBL E. cloacae) [µM] | MIC [14] [µM] | Chemokine induction Gro-α ([15]; 20 μg/ml peptide) [pg/mL] | Chemokine induction Gro-α ([15]; 100 μg/ml peptide) [pg/mL] | further results
CC[C@H](C)[C@H](N)C(=O)N[C@@H](CC(C)C)C(=O)N1CCC[C@H]1C(=O)N[C@@H](Cc1c[nH]c2ccccc12)C(=O)N[C@@H](Cc1c[nH]c2ccccc12)C(=O)N[C@@H](Cc1c[nH]c2ccccc12)C(=O)N1CCC[C@H]1C(=O)N[C@@H](Cc1c[nH]c2ccccc12)C(=O)N[C@@H](Cc1c[nH]c2ccccc12)C(=O)N1CCC[C@H]1C(=O)N[C@@H](Cc1c[nH]c2ccccc12)C(=O)N[C@@H](CCCNC(=N)N)C(=O)N[C@@H](CCCNC(=N)N)C(N)=O [HH235, ILPWWWPWWPWRR] (H-ILPWWWPWWPWRR-NH2; N-terminus assumed) | – | – | – | – | – | – | – | – | – | – | – | – | – | – | – | MIC P. aerug [1]: >84 µg/mL; MIC S. typhi [2]: >84 µg/mL; MIC E. faecalis [3]: 84 µg/mL (≈ 42.8 µM); MIC C. albicans [4]: 84 µg/mL (≈ 42.8 µM); MIC S. epi. [5]: 5 µg/mL (≈ 2.55 µM); MIC E. coli (Escherichia coli UB1005): >84 µg/mL; MIC S. aureus [6]: 20 µg/mL (≈ 10.2 µM); ability to inhibit TNFα responses compared with indolicidin [7]: slightly better or equivalent than indolicidin
CC[C@H](C)[C@H](NC(=O)[C@H](Cc1c[nH]c2ccccc12)NC(=O)[C@H](CCCCN)NC(=O)[C@H](Cc1c[nH]c2ccccc12)NC(=O)[C@H](Cc1c[nH]c2ccccc12)NC(=O)[C@H](CCCNC(=N)N)NC(=O)[C@@H](N)CCCCN)C(=O)N[C@@H](CCCNC(=N)N)C(=O)N[C@@H](Cc1c[nH]c2ccccc12)C(N)=O [HHC10, KRWWKWIRW] (H-KRWWKWIRW-NH2; N-terminus assumed) | 6 (≈ 8.66 µg/mL) | 1.5 (≈ 2.17 µg/mL) | 0.4 (≈ 0.578 µg/mL) | 0.8 (≈ 1.16 µg/mL) | 40 | 48 | 3210 | -1 | 49 | 12 (≈ 17.3 µg/mL) | 3 (≈ 4.33 µg/mL) | 3 (≈ 4.33 µg/mL) | 1.5 (≈ 2.17 µg/mL) | -11 | 2 | –
N=C(N)NCCC[C@H](NC(=O)[C@H](CCCNC(=N)N)NC(=O)[C@H](Cc1c[nH]c2ccccc12)NC(=O)[C@H](Cc1c[nH]c2ccccc12)NC(=O)[C@H](CCCCN)NC(=O)[C@H](Cc1c[nH]c2ccccc12)NC(=O)[C@H](Cc1c[nH]c2ccccc12)NC(=O)[C@H](CCCNC(=N)N)NC(=O)[C@@H](N)CCCCN)C(N)=O [HHC36, KRWWKWWRR] (H-KRWWKWWRR-NH2; N-terminus assumed) | 22 (≈ 32.7 µg/mL) | 3 (≈ 4.46 µg/mL) | 1.4 (≈ 2.08 µg/mL) | 0.3 (≈ 0.446 µg/mL) | 60 | 38 | 168 | 1 | 1 | 43 (≈ 63.9 µg/mL) | 3 (≈ 4.46 µg/mL) | 11 (≈ 16.4 µg/mL) | 1.4 (≈ 2.08 µg/mL) | 19 | -8 | –

Source: US8343475B2, “Small cationic antimicrobial peptides” (priority 2006, dated 2013)
